One may read the IC50 as the concentration that inhibits the measured activity by half.

One experiment relates to T47D cells. Kind of experiment: Viability of T47D breast cancer cells. It is filed as cell-based, human. Conditions: for inhibition at 100 µM / IC50: Homo sapiens, T47D; for inhibition at 100 µM: read-out: Decrease in cell number (maximal decrease = 100%), T47D. As to the method: (§1) To quantify cell death, around the time when significant and characteristic morphological changes took place, cells were pulse-labeled for 10 minutes with [^3H]thymidine to measure DNA activity as described elsewhere [Tomono, M. and Kiss, Z. (1995), “Ethanol enhances the stimulatory effects of insulin and insulin-like growth factor-I on DNA synthesis in NIH 3T3 fibroblasts,” Biochem. Biophys. Res. Commun. 208, 63-67]. Also, cells were collected as suspensions using trypsin, an established method in cell biology, followed by re-plating of cells in fresh tissue culture medium. If no viable cells were obtained after one week in culture, it meant that the cells at the time of re-plating were dead. Survival values obtained with untreated cells were considered 100%. For the determination of relative number of viable cells after treatments, in most cases the MTT assay was used. This calorimetric assay is based on the ability of living cells, but not dead cells, to reduce 3-(4,5-dimethyl thiazol-2-yl)-2,5-diphenyltetrazolium bromide [Carmichael, J, De Graff, W. G., Gazdar, A. F., Minna, J. D. and Mitchell, J. B. (1987), “Evaluation of tetrazolium-based semi-automated calorimetric assay: Assessment of chemosensitivity testing,” Cancer Res. 47, 936-942]. For this assay, cells were plated in 96-well plates, and the MTT assay was performed both in untreated and treated cell cultures. The MTT assay also was performed at the start of treatments to allow assessment of proliferation rates in the control and treated cell cultures.
About 40% confluent cultures of T47D cells, cultured in 12-well plates in RPMI 1640 medium supplemented with 0.2 IU bovine insulin and 10% FBS, were either untreated (FIG. 4A), or were treated with 100 μM CCDTHT (CCompound3) for 72 hours (FIG. 4B).
(§2) NIH3T3, T47D, A-431, HT-29, and MEL-28 cells were cultured as indicated earlier. CaOV-3 human ovarian cancer cells were cultured in DMEM containing 10% FBS. ZR-75-1 human estrogen receptor-positive breast cancer cells were maintained in RPMI 1640 medium supplemented with 10% FBS. HTB-157 human fetal fibroblasts, MEL-24 human malignant melanoma cells, Hep G2 human hepatoblastoma cells, and CaCO-2 human colon adenocarcinoma cells were maintained in Eagles's MEM containing 10% FBS. MB-231 human estrogen receptor-negative breast cancer cells were maintained in Leibovitz's L-15 medium supplemented with 10% FBS. Cells were seeded into 96-well plates and treated at ˜70-90% confluency. Two hours prior to treatments the medium was changed for fresh 10% serum medium, and then the cells were incubated for 10 days in the absence (□) or presence of 50 μM CCDTHT ? or 100 μM CCDTHT (▪). The medium was changed and the cells were re-treated on days 3 and 6. The MTT assay was used to determine cell viability on day 10. The data, shown in FIG. 6, are the mean±std. dev. of 8 incubations in one experiment.
The MRC-5 cell line is derived from normal lung tissue of a […] fetus. MRC-5 cells were maintained and treated in Eagles Medium with Hanks' BSS containing 10% fetal bovine serum. The T47D cells were maintained and treated in RPMI 1640 medium supplemented with 0.2 IU bovine insulin and 10% fetal bovine serum. The CaOV-3 human ovarian cancer cells were cultured in Dulbecco's modified Eagle's medium containing 10% fetal bovine serum. The cells were seeded in 96-well plates either at 10,000 cells per well or 30,000 cells per well to examine the antiproliferative and cytotoxic effects of various CC compounds, respectively. The cells were incubated for 24 hours, then the medium was changed followed by the treatments of cultures 2 hours after the medium change. At this point, cell cultures seeded at 10,000 cells per well and 30,000 cells per well were 25-35% and 80-90% confluent, respectively.

The next experiment has as its system NIH 3T3 cells. Kind of experiment: Viability of NIH 3T3 normal fibroblasts (MTT assay). It counts as cell-based. The note with it: 72 hours; for cytotoxicity at 100 µM: Mus musculus, NIH3T3, read-out: Decrease in cell number (maximal decrease = 100%), NIH 3T3. As to the method:
as §1
The NIH 3T3 (normal) mouse fibroblast, A431 human epidermoid adenocarcinoma, and MCF-7 human breast cancer cells were cultured in DMEM medium containing 10% FBS. The MEL-28 human melanoma cells were cultured in MEM medium containing 10% FBS. The HT-29 human colon adenocarcinoma cells were cultured in McCoy's 5a medium containing 10% FBS. The A549 human lung carcinoma cells were maintained in Ham's F12K medium containing 10% FBS. Cells were seeded into 96-well plates and treated at ˜70-90% confluency. Two hours before treatments the medium was changed for fresh 10% serum medium, and then the cells were incubated for 72 hours in the presence of 0-200 μM of CCompound1 (●) or CCompound3 (CCDTHT) (▴), as indicated. The MTT assay was used to determine cell viability after treatments. The values, shown in FIGS. 5A-5F and expressed as percent decrease in viability compared to the untreated control cells, are the mean±std. dev. of 8 incubations in one experiment. Similar results were obtained in another experiment.
as §2, with “experiment. (The experiment was repeated twice with similar results).” for “experiment.”
NIH 3T3, MEL-28, MEL-24, CaOV-3, ZR-75-1, and T47D cells were cultured as described above. The OVCAR human ovarian cancer cells were cultured in DMEM containing 10% FBS. Cells were seeded into 96-well plates and used at ˜60-80% confluency. […]

Structures can show the parent of a compound that is named as a salt. Where two headings read alike, the source gives them in different places.

In the case of `CC[N+](CC)(CCO)Cc1ccc2sc3ccccc3c(=O)c2c1` [CCcompound14, 2-Hydroxy-N,N-Diethyl-N-[(9-oxo-9H-thioxanthen-2-yl)methyl]-ethanaminium bromide], the inhibition at 100 µM in the experiment on T47D cells (100 μM, 72 hours) was 58%. The cytotoxicity at 100 µM with NIH 3T3 cells is 30%.

With `C[N+](C)(CCO)Cc1ccc2sc3ccccc3c(=O)c2c1` [CCcompound13, 2-Hydroxy-N,N-dimethyl-N-[(9-oxo-9H-thioxanthen-2-yl)methyl]-ethanaminium bromide], the inhibition at 100 µM in the experiment with T47D cells (100 μM, 72 hours) was determined as 47%. Moreover, in the experiment with NIH 3T3 cells, the cytotoxicity at 100 µM amounted to 25%.

For the compound `C[N+](C)(CCCO)Cc1ccc2sc3ccccc3c(=O)c2c1` [CCcompound15, 3-Hydroxy-N,N-dimethyl-N-[(9-oxo-9H-thioxanthen-2-yl)methyl]propane-1-aminium bromide], the inhibition at 100 µM with T47D cells (100 μM, 72 hours) was determined as 35%. The cytotoxicity at 100 µM with NIH 3T3 cells turned out to be 11%.

In the case of `CC[N+](C)(CC)CCCOCc1ccc2sc3ccccc3c(=O)c2c1` [CCcompound10, N,N-Diethyl-N-methyl-3-[(9-oxo-9H-thioxanthen-2-yl)methoxy]-propane-1-aminium iodide], the inhibition at 100 µM in the experiment on T47D cells (100 μM, 72 hours) came to 51%. For the same compound, the cytotoxicity at 100 µM with NIH 3T3 cells is 21%.

Take `CC[N+](CC)(CCCO)Cc1ccc2sc3ccccc3c(=O)c2c1` [CCcompound16, 3-Hydroxy-N,N-diethyl-N-[(9-oxo-9H-thioxanthen-2-yl)methyl]-propane-1-aminium bromide]: the inhibition at 100 µM in the experiment on T47D cells (100 μM, 72 hours) was determined as 48%. Further, the cytotoxicity at 100 µM in the experiment with NIH 3T3 cells worked out at 19%.

On to `CC[NH+](CC)CCCOCc1ccc2sc3ccccc3c(=O)c2c1` [CCcompound12, 2-{[3-(Diethylamino)propoxy]meth-yl}-9H-thioxanthen-9-one hydrochloride], for which, in the experiment on T47D cells (100 μM, 72 hours), the inhibition at 100 µM was found to be 48%. In addition, the cytotoxicity at 100 µM in the experiment on NIH 3T3 cells came to 0%.

Regarding `CC[N+](C)(C)CCCOCc1ccc2sc3ccccc3c(=O)c2c1` [CCcompound11, N,N-Dimethyl-N-ethyl-3-[(9-oxo-9H-thioxanthen-2-yl)methoxy]-propane-1-aminium iodide], the inhibition at 100 µM in the experiment with T47D cells (100 μM, 72 hours) came out at 59%. Moreover, in the experiment with NIH 3T3 cells, the cytotoxicity at 100 µM is 21%.

Take `CC[N+](CC)(CC)CCCOCc1ccc2sc3ccccc3c(=O)c2c1` [CCcompound9, N,N,N-Triethyl-3-[(9-oxo-9H-thioxanthen-2-yl)methoxy]-propane-1-aminium iodide]: the inhibition at 100 µM with T47D cells (100 μM, 72 hours) was determined as 52%. In the experiment with NIH 3T3 cells, the cytotoxicity at 100 µM turned out to be 22%.

As for `CC[N+](C)(CC)CCOCc1ccc2sc3ccccc3c(=O)c2c1.[I-]` [CCDTHT, N,N-diethyl-N-methyl-2-[(9-oxo-9H-thioxanthen-2-yl)methoxy]-ethanaminium iodide], the “DNA synthesis after re-seeding treated T47D cells” value with T47D cells (100 μM 72 hours, re-seeded, 96 hours later) is recorded as “no DNA synthesis could be detected”. Also, in the experiment on T47D cells (100 μM, 72 hours, 12-well plates), the “morphology / cell death, T47D” value is recorded as “practically all cells rounded up”. In addition, the “sensitivity to the inhibitory actions, T47D” value with T47D cells (50 and 100 μM, 10 days, MTT) is recorded as “very sensitive”. In addition, the inhibition at 100 µM in the experiment on T47D cells (100 μM, 72 hours) is 61%. In addition, the IC50 turned out to be 47 µM with T47D cells (10,000 cells per well (25-35% confluent), 72 hours, MTT, read-out: IC50 values, Antiproliferative, T47D) and 66 µM in the experiment on T47D cells (30,000 cells per well (80-90% confluent), 72 hours, MTT, read-out: IC50 values, Cytotoxic, T47D). In the experiment on NIH 3T3 cells (50 and 100 μM, MTT), the “sensitivity compared with HaCaT cells, NIH 3T3 fibroblasts” value is given as “significantly less sensitive”. Moreover, the cytotoxicity at 100 µM with NIH 3T3 cells came to 29%.

For the origin of these results see US7943606B2, “Compositions and methods to control abnormal cell growth” (CanCure Laboratories, LLC, priority 2005, dated 2011).
